Reference: patent publication US20250092056A1, “URACIL DERIVATIVES HAVING VIRUS REPLICATION INHIBITORY ACTIVITY AND PHARMACEUTICAL COMPOSITION COMPRISING THE SAME” (Shionogi & Co., Ltd., priority 2022, published 2025)
Where “and” joins values, the source holds several entries; their conditions need not be identical. Identical values can stand only once. Like-named read-outs stand apart in the source and are kept apart here.

Key:
SARS-CoV-2 = experiment: Cytopathic effect (CPE) suppression effect confirmation test using HEK293T/ACE2-TMPRSS2 cells; assay type: cell-based; conditions: Severe acute respiratory syndrome coronavirus 2, HEK-293T
[1] = biological target: Recombinant SARS-CoV-2 3CL Protease (Severe acute respiratory syndrome coronavirus 2 (2019-nCoV) (SARS-CoV-2), UniProt P0DTD1); experiment: biochemical; assay type: biochemical; conditions: 50% SARS-CoV-2 3CL protease inhibitory concentration; read-out: IC50
[2] = 72 h, read-out: EC50 (50% SARS-CoV-2 infected cell death inhibitory concentration), class, HEK293T/ACE2-TMPRSS2 cells, CPE suppression, CellTiter-Glo 2.0 after 3 days culture
[3] = 50% SARS-CoV-2 infected cell death inhibitory concentration, HEK293T/ACE2-TMPRSS2 cells, read-out: EC50
[4] = 72 h, read-out: EC50 (50% SARS-CoV-2 infected cell death inhibitory concentration), HEK293T/ACE2-TMPRSS2 cells, CPE suppression, CellTiter-Glo 2.0 after 3 days culture

## N#CCn1c(N2CC(c3nccs3)C2)c(-c2ccc(F)c(Cl)c2)c(=O)n(-c2cncc(Cl)c2)c1=O [Compound I-079]
SARS-CoV-2; [2]
  EC50: < 100 nM
[1]
  IC50: < 10 nM

## CC(C)(O)C1(F)CN(c2c(-c3ccc(F)c(Cl)c3)c(=O)n(-c3cncc(Cl)c3)c(=O)n2CC#N)C1 [Compound I-289]
SARS-CoV-2; [3]
  EC50: < 100 nM
[1]
  IC50: < 10 nM

## COC1CCN(c2c(Cc3cc(F)c(F)c(F)c3)c(=O)n(-c3cncc(C)c3)c(=O)n2CC#N)C1 (racemic) [Compound I-102]
SARS-CoV-2; [2]
  EC50: < 100 nM
[1]
  IC50: < 10 nM

## N#CCn1c(N2CC(C(F)F)C2)c(-c2ccc(F)c(Cl)c2)c(=O)n(-c2cncc(C#N)c2)c1=O [Compound I-312]
SARS-CoV-2; [3]
  EC50: < 100 nM
[1]
  IC50: < 10 nM

## Cc1cc(-n2c(=O)c(-c3ccc(F)c(Cl)c3)c(N3CCC(C)(C)CC3)n(CC#N)c2=O)cc(=O)[nH]1 [Compound I-170]
SARS-CoV-2; 72 h, HEK293T/ACE2-TMPRSS2 cells, CPE suppression, CellTiter-Glo 2.0 after 3 days culture, read-out: EC50 (50% SARS-CoV-2 infected cell death inhibitory concentration), class
  EC50: < 100 nM
[1]
  IC50: 10 to 100 nM

## C[C@@H](C#N)n1c(N2CCC(F)(F)CC2)c(-c2ccc(F)c(Cl)c2)c(=O)n(-c2cncc(Cl)c2)c1=O (single isomer, unassigned) [Compound I-386]
SARS-CoV-2; [3]
  EC50: < 100 nM
[1]
  IC50: < 10 nM

## N#CCn1c(Oc2cncc(Cl)c2)c(-c2ccc(F)c(Cl)c2)c(=O)n(-c2cncc(Cl)c2)c1=O [Compound I-246]
SARS-CoV-2; [3]
  EC50: 100 to 1000 nM
[1]
  IC50: < 10 nM

## Cc1cncc(-n2c(=O)c(Cc3cc(F)c(F)c(F)c3)c(N3CCC(C(F)F)CC3)n(CC#N)c2=O)c1 [Compound I-118]
SARS-CoV-2; [2]
  EC50: < 100 nM
[1]
  IC50: < 10 nM

## N#CCn1c(N2CC(OC(F)(F)F)C2)c(-c2ccc(F)c(Cl)c2)c(=O)n(-c2cnc3cc(F)ccn23)c1=O [Compound I-351]
SARS-CoV-2; [3]
  EC50: < 100 nM
[1]
  IC50: < 10 nM

## N#CCn1c(N2CC(F)(C3CC3)C2)c(-c2ccc(F)c(Cl)c2)c(=O)n(-c2cncc(OCF)n2)c1=O [Compound I-410]
SARS-CoV-2; [3]
  EC50: < 100 nM
[1]
  IC50: < 10 nM

## N#CCn1c(N2CCC3(CCC(=O)N3)C2)c(-c2ccc(F)c(Cl)c2)c(=O)n(-c2cncc(Cl)c2)c1=O (racemic) [Compound I-061]
SARS-CoV-2; [2]
  EC50: 100 to 1000 nM
[1]
  IC50: < 10 nM

## COc1ccc(Oc2c(Cc3cc(F)c(F)c(F)c3)c(=O)n(-c3cncc(C)c3)c(=O)n2CC#N)cc1 [Compound I-202]
SARS-CoV-2; [4]
  EC50: 613 nM
[1]
  IC50: 37 nM

## Cn1cnc(Cn2c(=O)c(Cc3cc(F)c(F)c(F)c3)c(N3Cc4ccccc4C3)n(CC#N)c2=O)n1 [Compound I-008]
SARS-CoV-2; [2]
  EC50: 100 to 1000 nM
[1]
  IC50: > 100 nM

## Cc1cncc(-n2c(=O)c(Cc3cc(F)c(F)c(F)c3)c(N3CCC(C)(O)CC3)n(CC#N)c2=O)c1 [Compound I-109]
SARS-CoV-2; [2]
  EC50: < 100 nM
[1]
  IC50: < 10 nM

## N#CCn1c(N2CC3(C2)CC(F)(F)C3)c(-c2ccc(F)c(Cl)c2)c(=O)n(-c2cc(C#N)cnn2)c1=O [Compound I-216]
SARS-CoV-2; [3]
  EC50: < 100 nM
[1]
  IC50: < 10 nM

## Cc1cc(-n2c(=O)c(-c3ccc(F)c(Cl)c3)c(-c3ccc(C4CC4)cc3)n(CC#N)c2=O)cc(=O)[nH]1 [Compound I-183]
SARS-CoV-2; [2]
  EC50: < 100 nM
[1]
  IC50: 10 to 100 nM and < 10 nM

## CC(C)(O)CCc1c(-c2ccc(F)c(Cl)c2)c(=O)n(-c2cncc(C#N)c2)c(=O)n1CC#N [Compound I-414]
SARS-CoV-2; [3]
  EC50: < 100 nM
[1]
  IC50: < 10 nM

## N#CCn1c(N2CC(OC(F)(F)F)C2)c(-c2ccc(F)c(Cl)c2)c(=O)n(-c2cncc(OCF)n2)c1=O [Compound I-408]
SARS-CoV-2; [3]
  EC50: < 100 nM
[1]
  IC50: < 10 nM

## N#CCn1c(N2CC3(CCOC3)C2)c(-c2cc(Cl)cc(C#N)c2)c(=O)n(-c2cncc(Cl)c2)c1=O [Compound I-179]
SARS-CoV-2; [2]
  EC50: < 100 nM
[1]
  IC50: < 10 nM

## N#CCn1c(N2CC3(CCOC3)C2)c(-c2cc(F)cc(Cl)c2)c(=O)n(-c2cncc(Cl)c2)c1=O [Compound I-180]
SARS-CoV-2; [2]
  EC50: < 100 nM
[1]
  IC50: < 10 nM

## N#CCn1c(N2CC3(CCOC3)C2)c(-c2cccc(Cl)c2)c(=O)n(-c2cncc(Cl)c2)c1=O [Compound I-182]
SARS-CoV-2; [4]
  EC50: 1.7 nM
[1]
  IC50: 0.4 nM

## N#CCn1c(N2CC(OC(F)F)C2)c(-c2ccc(F)c(Cl)c2)c(=O)n(-c2cncc(OCF)n2)c1=O [Compound I-420]
SARS-CoV-2; [3]
  EC50: < 100 nM
[1]
  IC50: < 10 nM

## Cc1cncc(-n2c(=O)c(-c3ccc(F)c(Cl)c3)c(/C=C/c3ccc(C(F)(F)F)cc3)n(CC#N)c2=O)c1 [Compound I-212]
SARS-CoV-2; [3]
  EC50: 100 to 1000 nM
[1]
  IC50: 10 to 100 nM

## N#CCn1c(N2CC(OC(F)F)C2)c(-c2cc(F)c(F)c(C#N)c2)c(=O)n(-c2cncc(Cl)c2)c1=O [Compound I-369]
SARS-CoV-2; [3]
  EC50: < 100 nM
[1]
  IC50: < 10 nM

## N#CCn1c(N2CC3(CCOC3)C2)c(CCCC(F)(F)F)c(=O)n(-c2cncc(Cl)c2)c1=O [Compound I-365]
SARS-CoV-2; [3]
  EC50: 100 to 1000 nM
[1]
  IC50: 10 to 100 nM

## CCCCc1c(-c2ccc(F)cc2)n(CC#N)c(=O)n(-c2cncc(Cl)c2)c1=O [Compound I-286]
SARS-CoV-2; [3]
  EC50: 100 to 1000 nM
[1]
  IC50: 10 to 100 nM
